Some test systems named below: HL-60(TB) leukemia; K-562 leukemia; MOLT-4 leukemia; NCI-H23 lung; RXF 393 renal; SF-295 CNS; A549 NSCLC; MCF7 breast; NCI/ADR-RES ovarian.
What all share (test): NCI-60 cell line screen, 48 h

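Protocol summary: plate cells (96-well), add compound at 5 concentrations, incubate 48 h, interpolate endpoints linearly. GI50: concentration for 50% inhibition of growth. The concentration for full growth arrest is given as TGI.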

As for `CN1CCN(C)C1c1cccc(C2N(C)CCN2C)c1`, the TGI with HL-60(TB) leukemia, in the assay on K-562 leukemia, with MOLT-4 leukemia, in the assay with NCI-H23 lung, in the assay with RXF 393 renal and in the assay with SF-295 CNS was more than 100 µM each time.
As to `CC/C=C\C/C=C\C1CC(=O)NCCCNCCCCN1` (configuration not stated), the TGI with A549 NSCLC is more than 100 µM; in the assay on HL-60(TB) leukemia, more than 100 µM; with NCI-H23 lung it was more than 100 µM; in the assay with RXF 393 renal, 70.4 µM; in the assay on SF-295 CNS it was more than 100 µM.
Consider `C=C(COC(C)=O)CC(/C=C(\C)CCC=C(C)C)OC(C)=O` (configuration not stated), for which the TGI in the assay on A549 NSCLC, in the assay on HL-60(TB) leukemia, in the assay on K-562 leukemia, in the assay on MOLT-4 leukemia, in the assay with NCI-H23 lung and in the assay with RXF 393 renal was more than 100 µM in each case. For the same compound, the TGI in the assay on SF-295 CNS is more than 100 µM.
In the case of `C[C@H]1CCC/C=C/[C@@H]2C[C@H](N)C[C@H]2[C@H](O)/C=C/C(=O)O1`, the GI50 with A549 NSCLC was more than 100 µM; with HL-60(TB) leukemia it was 98.4 µM; in the assay with K-562 leukemia, more than 100 µM; with MCF7 breast it was more than 100 µM; in the assay with MOLT-4 leukemia, 77.3 µM; in the assay with NCI-H23 lung, more than 100 µM. The GI50 in the assay with NCI/ADR-RES ovarian, in the assay on RXF 393 renal and in the assay with SF-295 CNS was more than 100 µM each time. Also, the TGI with A549 NSCLC, in the assay with HL-60(TB) leukemia, in the assay on K-562 leukemia, in the assay on MCF7 breast, in the assay on MOLT-4 leukemia and in the assay on NCI-H23 lung was more than 100 µM in each case. Also, the TGI in the assay on NCI/ADR-RES ovarian, with RXF 393 renal and with SF-295 CNS was more than 100 µM throughout.
`O=c1c2ccccc2c2c3c1cccc3c1cccc3c(=O)c4ccccc4c2c31`: the TGI in the assay on A549 NSCLC, in the assay with K-562 leukemia, with MOLT-4 leukemia, in the assay on NCI-H23 lung, in the assay with RXF 393 renal and in the assay on SF-295 CNS was more than 100 µM in each case.
As to `Cn1c(N)nc2c(nc(OCc3ccccc3)n2C2OC(CO)C(O)C2O)c1=O` (configuration not stated), the TGI with A549 NSCLC, in the assay with HL-60(TB) leukemia, in the assay on K-562 leukemia, in the assay with MCF7 breast, in the assay on MOLT-4 leukemia and in the assay with RXF 393 renal was more than 100 µM in each case. This compound also registered a TGI in the assay on SF-295 CNS of more than 100 µM.
As for `CC1=Nc2c(ccc3c2C(=O)c2ccccc2C3=O)NC(c2ccncc2)C1` (configuration not stated), the TGI in the assay on A549 NSCLC, in the assay on HL-60(TB) leukemia, in the assay with K-562 leukemia, in the assay with MOLT-4 leukemia, with NCI-H23 lung and with RXF 393 renal was more than 100 µM each time. In the assay with SF-295 CNS, this compound gave a TGI of more than 100 µM. Besides, the GI50 in the assay with NCI-H23 lung, in the assay on RXF 393 renal and in the assay with SF-295 CNS was more than 100 µM in each case.
With `CCCS(=O)(=O)c1nc(NC2CC2)cc(-c2ccc3c(ccn3C3CC(C)(C)NC(C)(C)C3)c2)n1`, the GI50 is 1.75 µM in the assay on HL-60(TB) leukemia; 0.777 µM with K-562 leukemia; 2.02 µM with MOLT-4 leukemia; 2 µM in the assay on NCI/ADR-RES ovarian; 1.64 µM in the assay with RXF 393 renal; 1.82 µM in the assay on SF-295 CNS. Moreover, the TGI in the assay with HL-60(TB) leukemia was 3.73 µM; in the assay on K-562 leukemia, 2.48 µM; in the assay on MOLT-4 leukemia, 4.57 µM; with NCI/ADR-RES ovarian, 4.46 µM; in the assay on RXF 393 renal, 3.44 µM; in the assay with SF-295 CNS, 3.47 µM.
Regarding `O=C1N[C@@H](O)[C@@H]2ON=C(c3ccccc3)[C@H]12`, the TGI with A549 NSCLC, with HL-60(TB) leukemia, in the assay with K-562 leukemia, with MOLT-4 leukemia, with NCI-H23 lung and with RXF 393 renal was more than 100 µM each time. Also, the TGI in the assay with SF-295 CNS is more than 100 µM.
Consider `CC(=O)OCCOCBr`, for which the TGI with A549 NSCLC, in the assay on HL-60(TB) leukemia, with K-562 leukemia, in the assay with RXF 393 renal and with SF-295 CNS was more than 100 µM in each case.
Take `Cc1ccc2/c(=C/c3ccc(N(C)C)cc3)c3cc(-c4ccccc4)[n+](C)n3c2c1`: the GI50 was 0.0987 µM in the assay with A549 NSCLC; less than 0.0255 µM in the assay with K-562 leukemia; 0.036 µM in the assay with MCF7 breast; 0.0383 µM in the assay on MOLT-4 leukemia; 0.0836 µM in the assay on NCI-H23 lung; 6.41 µM in the assay on NCI/ADR-RES ovarian. Further, the GI50 in the assay on SF-295 CNS is 0.352 µM. Further, the TGI in the assay on A549 NSCLC was more than 100 µM; in the assay with K-562 leukemia, more than 100 µM; with MCF7 breast, 11.3 µM; in the assay with MOLT-4 leukemia it was more than 100 µM; in the assay on NCI-H23 lung, 1.9 µM; in the assay on NCI/ADR-RES ovarian, more than 100 µM. In the assay on SF-295 CNS, this compound gave a TGI of 3.31 µM.
`NC1=NC(=O)C(CC(=O)Nc2ccc([N+](=O)[O-])cc2[N+](=O)[O-])S1` (configuration not stated): the TGI in the assay with A549 NSCLC, in the assay on HL-60(TB) leukemia, in the assay on MOLT-4 leukemia, in the assay on NCI-H23 lung, in the assay on RXF 393 renal and in the assay on SF-295 CNS was more than 100 µM each time.
As for `CC(C)(C)C1(O)Cc2ccccc2C(=O)O1` (configuration not stated), the TGI in the assay with A549 NSCLC, in the assay on HL-60(TB) leukemia, in the assay with K-562 leukemia, with MOLT-4 leukemia, in the assay on NCI-H23 lung and in the assay with RXF 393 renal was more than 100 µM in each case. In addition, the TGI in the assay on SF-295 CNS was more than 100 µM.
For the compound `COc1ccc(C2=NC(C)(C)CO2)cc1`, the TGI with A549 NSCLC, in the assay with HL-60(TB) leukemia, with K-562 leukemia, in the assay on NCI-H23 lung, in the assay on RXF 393 renal and in the assay on SF-295 CNS was more than 100 µM throughout.
For the compound `COc1ccc(C2C(N)=NCC2c2ccccn2)cc1` (configuration not stated), the TGI in the assay on A549 NSCLC, in the assay with K-562 leukemia, in the assay with MOLT-4 leukemia, in the assay with NCI-H23 lung, in the assay with RXF 393 renal and in the assay on SF-295 CNS was more than 100 µM each time.

The values are drawn from PubChem BioAssay (NCI).
